Assay results: the NIST ThermoML archive (doi:10.1016/j.fluid.2012.09.037)

Test: xn = mol fraction of the nth substance listed
Conditions: 373.2 K, Liquid; for viscosity: Moving piston method; for mass density: Vibrating tube method

CCCCCCCCCC [decane] + O=C=O
Conditions | mass density [kg/m3] | viscosity [mPa·s]
1120 kPa, x2 = 0.075 | 669 | 0.35
1950 kPa, x2 = 0.124 | 671 | 0.33
3040 kPa, x2 = 0.192 | 672 | 0.29
4010 kPa, x2 = 0.246 | 674 | 0.27
5110 kPa, x2 = 0.313 | 676 | 0.25
6190 kPa, x2 = 0.367 | 677 | 0.22

CCCCCCCCCC [decane] + CCCCCCCCCCCCCC
x1 = 1
Conditions | mass density [kg/m3]
100 kPa | 667.1
1000 kPa | 668.4
2000 kPa | 669.6
3000 kPa | 670.9
4000 kPa | 672.1
5000 kPa | 673.4
6000 kPa | 674.5
7000 kPa | 675.7
8000 kPa | 676.9
9000 kPa | 678.1
10000 kPa | 679.2

CCCCCCCCCCCCCC [tetradecane] + O=C=O
Conditions | mass density [kg/m3] | viscosity [mPa·s]
960 kPa, x2 = 0.07 | 707 | 0.6
2000 kPa, x2 = 0.135 | 709 | 0.55
2970 kPa, x2 = 0.198 | 710 | 0.51
4000 kPa, x2 = 0.261 | 711 | 0.47
4920 kPa, x2 = 0.307 | 713 | 0.44
5970 kPa, x2 = 0.358 | 714 | 0.41

CCCCCCCCCCCCCC [tetradecane] + CCCCCCCCCC
mass density [kg/m3]
Conditions | x2 = 0 | x2 = 0.25 | x2 = 0.5 | x2 = 0.75
100 kPa | 705.4 | 697.8 | 689.1 | 679.1
1000 kPa | 706.5 | 698.8 | 690.3 | 680.3
2000 kPa | 707.6 | 699.9 | 691.5 | 681.6
3000 kPa | 708.6 | 701 | 692.6 | 682.7
4000 kPa | 709.6 | 702 | 693.7 | 683.9
5000 kPa | 710.7 | 703.1 | 694.8 | 685.1
6000 kPa | 711.6 | 704.1 | 695.9 | 686.2
7000 kPa | 712.6 | 705.2 | 697 | 687.3
8000 kPa | 713.6 | 706.2 | 698 | 688.4
9000 kPa | 714.6 | 707.2 | 699 | 689.5
10000 kPa | 715.5 | 708.2 | 700.1 | 690.6
